Test results from patent US20130209986A1, “METHOD FOR ENHANCING BUTYRATE PRODUCTION BY CLOSTRIDIUM TYROBUTYRICUM” (KOREA INSTITUTE OF SCIENCE AND TECHNOLOGY, priority 2012, published 2013).

Key:
[1] = test system: Clostridium tyrobutyricum strains; experiment: Fermentation of Clostridium tyrobutyricum with an electron transfer mediator added to the P2 culture medium (Experimental Example 1); type: cell-based; details: for Enhancement of butyrate production by simply adding the mediator to the medium: simple addition, no reduction electrode
Protocol: The P2 culture medium (Qureshi and Blaschek 1999) of pH 6.4±0.1 containing sucrose of 20 g/L instead glucose was sterilized. The Methyl Viologen (MV) (E°′=−446 mV) (Aldrich, South Korea) was added to the sterilized P2 culture medium with the concentrations of 0.1 mM (embodiment 1-1), 0.4 mM (embodiment 1-2), 0.5 mM (embodiment 1-3), 1.0 mM (embodiment 1-4), 2.0 mM (embodiment 1-5), 5.0 mM (embodiment 1-6) and 10.0 mM (embodiment 1-7). The separated Clostridium tyrobutyricum strains were inoculated on the MV-added P2 culture medium and were cultured at 37° C. and 150 rpm.
The strains were cultured under the same conditions as the conditions of the embodiments 1-1 to 1-7 except for the strains which didn't have an added MV.
The strains were cultured under the same conditions as the conditions of the embodiments 1-1 to 1-7 except for the strains on which 0.1 mM and 0.5 mM of the Neutral Red (NR) (E°′=−325 mV) (Aldrich, South Korea) were added instead of the MV.
The strains were cultured under the same conditions as the conditions of the embodiments 1-1 to 1-7 except for the strains on which 0.5 mM of anthraquinone-1,5-disulfonic acid, AQDS) (E°′=−184 mV) (Aldrich, South Korea) was added instead of the MV.
The butyrate and acetate produced through the embodiments 1-1 to 1-7, the comparison example 1, the comparison examples 2-1 to 2-7 and the comparison examples 3-1 to 3-7 were analyzed by HP-INNOWax column (30 m×250 μm×0.25 μm, Agilent Technologies and the gas chromatography (GC, Agilent technology 6890N Network GC System) with the frame-ionized detector. The hydrogen and carbon dioxide were quantified by multiplying the gas composition with the increased gas volume. The gas composition percentage was analyzed by the GC having a heat conductivity detector. The consumed sucrose concentration was quantified by a high performance liquid chromatography (HPLC) (Hi-plex H, Agilent, Santa Clara, Calif.) with 5 mM of sulfuric acid as a mobile phase at the flow rate of 0.5 mLmin^−1. The growth of microorganisms was checked at 600 nm of absorbance by using Shimadzu UVmini-1240 spectrophotometer or was checked with the Chemical Oxygen Demand (COD, mg/L unit) induced by the base soluble COD from the total COD by using COD vials (C-mac, South Korea, concentration range of 10-1,500 mg/L). The obtained values were average values obtained as the experiments were repeatedly performed three times or four times under a corresponding condition.

[2] = test system: Clostridium tyrobutyricum; experiment: Fermentation of Clostridium tyrobutyricum in a bioelectrical reactor (BER) with reduction electrode and electron transfer mediator (Experimental Example 2); type: cell-based
Protocol: A Bioelectrical Reactor (BER) formed of Pyrex was manufactured, which was specially designed for the sake of the anaerobic bacteria culture by changing a little the H-type reactor with a dual chamber (450 mL each). The reduction electrode (cathode) was a graphite felt electrode (4.5 cm×12 cm), and the oxidation electrode (anode) was a Pt plate electrode (2.5 cm×5 cm). The reference electrode was Ag/AgCl, 3 M KCl (BASi, West Lafayette, Ind.) and was dipped at a portion of the reduction electrode. The portions of the oxidation electrode and the reduction electrode were separated by Nafion 117 positive ion-exchange membrane (Naracell-tech, South Korea). The biological gas was collected by a Tedlar bag connected with a stainless steel fitting inserted in a reduction electrode stopper. The temperature of the reactor was maintained at 37±1° C. by a heating tape (Daihan, South Korea). The temperature sensor was inserted into a partition of the oxidation electrode by way of the stainless steel stand rod.
The portion of the reduction electrode of the reactor has features in that the neutral red was filled with the P2 medium added with 0.1 mM, and the portion of the oxidation electrode was filled with hexacyanoferrate [K4(Fe(CN)6)·3H2O]. The BER operated under a constant reduction electrode potential of −400 mV (vs. Ag/AgCl). The above mentioned potential was set by the potentiostat/galvanostat (EG&G Princeton Applied Research, Model 273A, Princeton, N.J.) which could be controlled by a computer. So, the current between the oxidation electrode and the reduction electrode was monitored. The reduction voltage applied to the reduction electrode was determined from the redox peak in the cyclic voltammogram of the culture liquid to which the neutral red was added at the scan speed of 20 mV/s based on the reduction electrode versus Ag/AgCl. The reduction of the neutral red by the reduction electrode appeared as the color of the solution turned from the red (NRox) to the yellow (NRred) when it was balanced to the negative potential within 5-30 minutes. For the sake of pH-adjusted BER operation, pH was maintained at 6 by temporarily adding 3M NaOH.
The embodiment 3 was performed in the same manner as the embodiment 2 except for the adjustment of pH.
The embodiment 4 was performed in the same manner as the embodiment 2 except that the portion of the reduction electrode of the reactor was filed with the P2 medium added with the MV of 0.5 mM of concentration was operated under a constant reduction electrode potential of −750 mV (vs. Ag/AgCl). In case of the MV, the reduction had features in that the color of the solution turned from a colorlessness (MVox) to a purple color (MVred).

[3] = Embodiment 4: methyl viologen 0.5 mM, −750 mV
[4] = methyl viologen 0.1 mM (embodiment 1-1)
[5] = methyl viologen 0.4 mM (embodiment 1-2)
[6] = methyl viologen 0.5 mM (embodiment 1-3)
[7] = methyl viologen 1 mM (embodiment 1-4)
[8] = methyl viologen 2 mM (embodiment 1-5)
[9] = methyl viologen 5 mM (embodiment 1-6)
[10] = methyl viologen 10 mM (embodiment 1-7)
[11] = Embodiment 2: BER with neutral red 0.1 mM, −400 mV, pH 6 controlled
[12] = Embodiment 3: BER with neutral red 0.1 mM, −400 mV, no pH control

O=C1c2cccc(S(=O)(=O)O)c2C(=O)c2cccc(S(=O)(=O)O)c21 [AQDS, anthraquinone-1,5-disulfonic acid]
Enhancement of butyrate production by simply adding the mediator to the medium [1]: impossible to enhance the production of butyrate

C[n+]1ccc(-c2cc[n+](C)cc2)cc1 [Methyl viologen, Methyl Viologen]
Acetate productivity (maximum productivity) [2, 3]: 0.25 ± 0 g/L, h^−1 | Butyrate productivity (maximum productivity) [2, 3]: 0.34 ± 0.01 g/L, h^−1 | Butyrate yield [2, 3]: 0.43 ± 0.02 g butyrate/g sucrose | Final butyrate concentration [2, 3]: 7.1 ± 0.4 g/L | Maximum O.D. (600 nm) [2, 3]: 5.3 ± 0.4 | Specific growth rate [2, 3]: 0.10 ± 0.01 h⁻¹ | Sucrose uptake rate (maximum uptake rate) [2, 3]: 0.85 ± 0.05 g/L, h^−1 | Production of butyrate in the reduction electrode system ([2]; MV, embodiment 4, −750 mV vs. Ag/AgCl): didn't help enhance the production of butyrate | Final concentration of butyrate as compared to the comparison group ([1]; 0.5 mM, simple addition without reduction electrode): about 1.5 times | Production of butyrate among MV, NR and AQDS (FIG. 2) ([1]; mediators added at 0.5 mM): highest | Bio-gas % vs. control [1, 4]: 82% | Bio-gas vol [1, 4]: 110 mL | Butyrate % vs. control [1, 4]: 115% | Butyrate final conc. [1, 4]: 6.5 g/L | OD (600 nm) ([1]; methyl viologen 0.1 mM (embodiment 1-1), P2 medium sucrose 20 g/L, 37° C.): 6.2 (±0.4) | Bio-gas % vs. control [1, 5]: 80% | Bio-gas vol [1, 5]: 107 mL | Butyrate % vs. control [1, 5]: 128% | Butyrate final conc. [1, 5]: 7.3 g/L | OD (600 nm) [1, 5]: 6.3 (±0)^ | Bio-gas % vs. control [1, 6]: 65% | Bio-gas vol [1, 6]: 87 mL | Butyrate % vs. control [1, 6]: 150% | Butyrate final conc. [1, 6]: 8.5 g/L | OD (600 nm) [1, 6]: 5.8 (±0.3) | Bio-gas % vs. control [1, 7]: 50% | Bio-gas vol [1, 7]: 67 mL | Butyrate % vs. control [1, 7]: 109% | Butyrate final conc. [1, 7]: 6.2 g/L | OD (600 nm) [1, 7]: 5.4 (±0.8) | Bio-gas % vs. control [1, 8]: 34% | Bio-gas vol [1, 8]: 46 mL | Butyrate % vs. control [1, 8]: 112% | Butyrate final conc. [1, 8]: 6.4 g/L | OD (600 nm) [1, 8]: 3.9 (±0.9) | Bio-gas % vs. control [1, 9]: 3% | Bio-gas vol [1, 9]: 4 mL | Butyrate % vs. control [1, 9]: 14% | Butyrate final conc. [1, 9]: 0.8 g/L | OD (600 nm) [1, 9]: 1.5 (±1.9) | Bio-gas % vs. control [1, 10]: 3% | Bio-gas vol [1, 10]: 4 mL | Butyrate % vs. control [1, 10]: 12% | Butyrate final conc. [1, 10]: 0.7 g/L | OD (600 nm) [1, 10]: 0.2 (±0.1)

Cc1cc2nc3ccc(N(C)C)cc3nc2cc1N.Cl [neutral red, Neutral Red]
Acetate productivity (maximum productivity) [2, 11]: 0 g/L, h^−1 | Butyrate productivity (maximum productivity) [2, 11]: 0.28 ± 0.01 g/L, h^−1 | Butyrate yield [2, 11]: 0.44 ± 0.04 g butyrate/g sucrose | Final butyrate concentration [2, 11]: 8.8 ± 0.9 g/L | Maximum O.D. (600 nm) [2, 11]: 5.1 ± 0.7 | Specific growth rate [2, 11]: 0.87 ± 0.64 h⁻¹ | Sucrose uptake rate (maximum uptake rate) [2, 11]: 0.67 ± 0 g/L, h^−1 | Acetate productivity (maximum productivity) [2, 12]: 0 g/L, h^−1 | Butyrate productivity (maximum productivity) [2, 12]: 0.31 ± 0.07 g/L, h^−1 | Butyrate yield [2, 12]: 0.45 ± 0.02 g butyrate/g sucrose | Final butyrate concentration [2, 12]: 6.7 ± 0.3 g/L | Maximum O.D. (600 nm) [2, 12]: 5.0 ± 0.4 | Specific growth rate [2, 12]: 0.11 ± 0.01 h⁻¹ | Sucrose uptake rate (maximum uptake rate) [2, 12]: 0.64 ± 0.31 g/L, h^−1 | Production of butyrate (FIG. 4) ([2]; embodiment 2, neutral red reduction electrode system, increased from 5 g/L): 8 g/L | Acetic acid production in the reduction electrode system ([2]; embodiments 2 and 3, neutral red): did not produce acetic acid | Production of butyrate in the reduction electrode system ([2]; neutral red, embodiments 2 and 3, −400 mV vs. Ag/AgCl): increase in the production of butyrate | Enhancement of butyrate production by simply adding the mediator to the medium [1]: didn't make any effects | Enhancement of butyrate production by simply adding the mediator to the medium ([1]; listed as NR): impossible to enhance the production of butyrate
